Counter-ions that a name gives are not always drawn.
Columns and labels:
[1] = tested on: children with non-syndromic autism spectrum disorder (ASD) and language impairment; test: Randomized placebo-controlled trial: Social Responsiveness Scale (SRS); assay type: in vivo, human; settings: lower = less social symptoms
Source text: The Social Responsiveness Scale (“SRS”) is a 65-item questionnaire that measures social skills across five domains: Social Awareness (8 items, meaningful change 7.1), Social Cognition (12 items, meaningful change 5.8), Social Communication (22 items, meaningful change 4.2), Social Motivation (11 items, meaningful change 5.7), Autistic Mannerisms (12 items, meaningful change 5.5) and total (65 items). Each item is rated 0 to 3 with higher scores indicating greater severity. Standardized T-scores (mean 50, standard deviation 10) range 30-90. This two-arm double-blind randomized placebo-controlled parallel study with a 1:1 allocation was performed at Arkansas Children's Research Institute (Little Rock, Ark., USA) from 4 Jun. 2012 to 22 Nov. 2013. Parent and teacher questionnaires were requested at baseline and 6 and 12 weeks after starting treatment. Parents were asked to deliver baseline questionnaires to teachers or therapists. After the first visit, questionnaires were mailed to the parents and teachers at least 1 week prior to the target date of completion. Parents were asked to bring the completed teacher and parent 12-week questionnaires to the final assessment. Other questionnaires were returned in a preaddressed postage-paid envelope. The target dose of the intervention (INN: DL folinic acid calcium salt; USAN: leucovorin calcium) was 2 mg kg^−1 per day (maximum 50 mg per day) in two equally divided doses with half of the target dose given during the first 2 weeks. Dye-free, milk-product-free, vegetarian capsules were provided in three strengths (5, 10 and 25 mg) by Lee Silsby Compounding Pharmacy (Cleveland Heights, Ohio, USA). Certificate of analysis was provided for each capsule strength by an independent analytical service (Eagle Analytical Services, Houston, Tex., USA) for each batch of capsules produced. In all cases, potency was at least 99%. Secondary outcomes. Secondary outcome measures included the Ohio Autism Clinical Impression Scale (OACIS), Vineland Adaptive Behavior Scale 2nd Edition (VABS) Survey Interview Form and several questionnaires. Parents and teachers were asked to complete the Aberrant Behavior Checklist (ABC), Social Responsiveness Scale (SRS) and Behavioral Assessment System for Children 2nd Edition (BASC). Only parents were asked to complete the Autism Impact Measure (AIM) and Autism Symptoms Questionnaire (ASQ). Secondary outcome measures were analyzed using the mixed-model regression. Because of the large number of secondary outcomes, correction for multiple comparisons was conducted using the false discovery rate.

[2] = tested on: children with non-syndromic autism spectrum disorder (ASD) and language impairment; test: Randomized placebo-controlled trial: Behavioral Assessment System for Children (BASC); assay type: in vivo, human; settings: for BASC Internalizing problems, estimated effect: calcium salt
Description: The Behavioral Assessment System for Children 2nd Edition (“BASC”) ranges from 185 to 306 items and is validated in ASD. Each item is rated 0 to 3 with higher scores indicating greater severity. Standardized T-Scores (mean 50, standard deviation 10) range 20-120 for externalizing, internalizing and behavioral symptoms and 10-90 for adaptive skills. This two-arm double-blind randomized placebo-controlled parallel study with a 1:1 allocation was performed at Arkansas Children's Research Institute (Little Rock, Ark., USA) from 4 Jun. 2012 to 22 Nov. 2013. Parent and teacher questionnaires were requested at baseline and 6 and 12 weeks after starting treatment. Parents were asked to deliver baseline questionnaires to teachers or therapists. After the first visit, questionnaires were mailed to the parents and teachers at least 1 week prior to the target date of completion. Parents were asked to bring the completed teacher and parent 12-week questionnaires to the final assessment. Other questionnaires were returned in a preaddressed postage-paid envelope. The target dose of the intervention (INN: DL folinic acid calcium salt; USAN: leucovorin calcium) was 2 mg kg^−1 per day (maximum 50 mg per day) in two equally divided doses with half of the target dose given during the first 2 weeks. Dye-free, milk-product-free, vegetarian capsules were provided in three strengths (5, 10 and 25 mg) by Lee Silsby Compounding Pharmacy (Cleveland Heights, Ohio, USA). Certificate of analysis was provided for each capsule strength by an independent analytical service (Eagle Analytical Services, Houston, Tex., USA) for each batch of capsules produced. In all cases, potency was at least 99%. Secondary outcomes. Secondary outcome measures included the Ohio Autism Clinical Impression Scale (OACIS), Vineland Adaptive Behavior Scale 2nd Edition (VABS) Survey Interview Form and several questionnaires. Parents and teachers were asked to complete the Aberrant Behavior Checklist (ABC), Social Responsiveness Scale (SRS) and Behavioral Assessment System for Children 2nd Edition (BASC). Only parents were asked to complete the Autism Impact Measure (AIM) and Autism Symptoms Questionnaire (ASQ). Secondary outcome measures were analyzed using the mixed-model regression. Because of the large number of secondary outcomes, correction for multiple comparisons was conducted using the false discovery rate.

[3] = vs placebo, mixed-model regression
[4] = vs placebo, mixed-model regression, lower = better

In the case of `Nc1nc2c(c(=O)[nH]1)N(C=O)C(CNc1ccc(C(=O)N[C@@H](CCC(=O)O)C(=O)O)cc1)CN2` (mixture of isomers) [Folinic acid, DL folinic acid calcium salt], the “SRS Motivation, 12-week assessment mean” value ([1]; 2 mg kg^−1 per day, 12 weeks, baseline 75.5) is reported as 70.3 T-Scores, the “SRS Awareness, 12-week assessment mean” value ([1]; 2 mg kg^−1 per day, 12 weeks, baseline 79.2) is reported as 78.7 T-Scores and the “SRS Communication, 12-week assessment mean” value ([1]; 2 mg kg^−1 per day, 12 weeks, baseline 82.5) is reported as 80.1 T-Scores. For the same molecule, the “SRS Mannerisms, 12-week assessment mean” value ([1]; 2 mg kg^−1 per day, 12 weeks, baseline 83.4) was 80.5 T-Scores, the “SRS Cognition, 12-week assessment mean” value ([1]; 2 mg kg^−1 per day, 12 weeks, baseline 83.7) was 79.3 T-Scores and the “SRS Total, 12-week assessment mean” value ([1]; 2 mg kg^−1 per day, 12 weeks, baseline 84.9) was 82.2 T-Scores. For the same molecule, the “SRS Awareness, estimated effect” value [1, 3] was 0.3 T-Scores, the “SRS Cognition, estimated effect” value [1, 3] was 0.8 T-Scores and the “SRS Communication, estimated effect” value [1, 3] was 1.5 T-Scores. For the same molecule, the “SRS Mannerisms, estimated effect” value [1, 3] was 0.9 T-Scores, the “SRS Motivation, estimated effect” value [1, 3] was 0.2 T-Scores and the “SRS Total, estimated effect” value [1, 3] was 0.8 T-Scores. The “BASC Adaptive skills, 12-week assessment mean” value ([2]; 2 mg kg^−1 per day, 12 weeks, baseline 24.5, higher = better) was 27.8 T-Scores, the “BASC Internalizing problems, 12-week assessment mean” value ([2]; 2 mg kg^−1 per day, 12 weeks, baseline 49.3, lower = better) was 43.1 T-Scores and the “BASC Externalizing problems, 12-week assessment mean” value ([2]; 2 mg kg^−1 per day, 12 weeks, baseline 60.9, lower = better) was 57.7 T-Scores. The “BASC Behavior problems, 12-week assessment mean” value ([2]; 2 mg kg^−1 per day, 12 weeks, baseline 71.1, lower = better) was 65.3 T-Scores, the “BASC Adaptive skills, estimated effect” value ([2]; vs placebo, mixed-model regression, higher = better) was 0.4 T-Scores and the “BASC Behavior problems, estimated effect” value [2, 4] was 0.1 T-Scores. For the same molecule, the “BASC Externalizing problems, estimated effect” value [2, 4] was −0.1 T-Scores, the “BASC Internalizing problems, estimated effect” value [2, 4] was −1.1 T-Scores and the “BASC Internalizing problems, estimated effect” value ([2]; vs placebo, mixed-model regression, lower = better, listed as folinic acid) was “significantly improved”.

Source: patent US20190111059A1, “COMPOSITIONS AND METHODS FOR TREATING AUTISM SPECTRUM DISORDER” (Marinus Pharmaceuticals, Inc., priority 2017, published 2019)
